Test results taken from a compilation of properties of binary mixtures (doi:10.1016/j.jct.2013.10.027).

Experiment: xn = mol fraction of the nth substance listed
Details: 101 kPa

OCC(F)(F)F + CCCC[n+]1ccn(C)c1.O=S(=O)([N-]S(=O)(=O)C(F)(F)F)C(F)(F)F
viscosity [mPa·s]
Details | x1 = 0.0877 | x1 = 0.2626 | x1 = 0.4753 | x1 = 0.6153 | x1 = 0.7568 | x1 = 0.8748 | x1 = 1
278.15 K | 111.4 | – | – | – | – | 5.37 | 3.28
283.15 K | 84.8 | 51.2 | 24.63 | 14.14 | 7.74 | 4.62 | 2.81
288.15 K | 66 | 40.93 | 20.36 | 11.94 | 6.67 | 4.02 | 2.42
293.15 K | 52.3 | 33.18 | 17.03 | – | 5.8 | 3.53 | 2.11
298.15 K | 42.28 | – | 14.48 | 8.81 | – | 3.12 | 1.84
303.15 K | 34.67 | 22.96 | 12.43 | 7.68 | 4.45 | 2.78 | 1.62
308.15 K | 28.83 | 19.43 | 10.77 | 6.75 | 3.94 | 2.49 | 1.43
313.15 K | 24.27 | 16.63 | – | 5.99 | 3.53 | 2.25 | 1.27
318.15 K | 20.67 | 14.38 | – | 5.35 | 3.18 | 2.04 | 1.13
323.15 K | 17.78 | 12.54 | 7.38 | 4.81 | 2.88 | 1.85 | –
328.15 K | 15.43 | 11.03 | 6.6 | 4.34 | 2.62 | 1.69 | 0.925
333.15 K | 13.51 | – | 5.94 | 3.95 | 2.4 | 1.54 | 0.824

CCCC[n+]1ccn(C)c1.O=S(=O)([N-]S(=O)(=O)C(F)(F)F)C(F)(F)F + OCC(F)(F)F
x2 = 0
Details | viscosity [mPa·s]
278.15 K | 143
288.15 K | 82.4
293.15 K | 64.6
298.15 K | 51.6
303.15 K | 41.9
308.15 K | 34.6
313.15 K | 28.9
318.15 K | 24.4
323.15 K | 20.9
328.15 K | 18
333.15 K | 15.7
